US8603751B2, “Mycobacterial disease detection, treatment, and drug discovery” (priority 2006, dated 2013)
Entries after “also recorded” stand apart in the source; their conditions may differ.

Legend:
[1] = biological target: DevS(HKD)-DevR interaction (Mycobacterium tuberculosis, UniProt P9WMF9); test: M-PFC TRIM plate assay of the DevS(HKD)-DevR interaction; format: cell-based; conditions: 10 and 25 μg/mL, TRIM plates, FIG. 12
Excerpt: Additionally, whether inhibition of DevR dimerization effected upstream interactions with DevR and DevS (Rv3132c), a corresponding sensor histidine kinase involved in the Mycobacterium dormancy pathway was investigated.

[2] = biological target: T1, Esat6-Cfp10 (Rv3875-Rv3874) interaction (Mycobacterium tuberculosis, UniProt P9WNK5+P9WNK7); test: M-PFC counter-screen with the Esat6-Cfp10 interacting pair; format: cell-based
T1 construct: The complete open reading frames (ORF) were cloned into pUAB100 and pUAB200; Gly10 linker + mDHFR fragment F[1,2]; Gly10 linker + mDHFR fragment F[3]; expressed in transfected cells; host or cells: Mycobacterium smegmatis
T1 sequence (P9WNK7 whole entry, the tested form may be a part): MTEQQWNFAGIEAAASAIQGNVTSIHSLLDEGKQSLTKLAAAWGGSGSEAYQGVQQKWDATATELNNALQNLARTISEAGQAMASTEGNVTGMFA
T1 sequence (P9WNK5 whole entry, the tested form may be a part): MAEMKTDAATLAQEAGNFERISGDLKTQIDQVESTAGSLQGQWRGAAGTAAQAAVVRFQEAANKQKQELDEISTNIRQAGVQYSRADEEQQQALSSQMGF

Msm = conditions: on 7H11
Msm cells = test: Effect of screened compounds on cell viability (control plates of the M-PFC screen); conditions: at high concentrations
Mycobacterial cells = test: Viability of Mycobacterial cells with rapamycin; conditions: rapamycin concentrations as high as 200 μg/mL

DevS(HKD)-DevR interaction, sequence (P9WMF9 whole entry, looked up): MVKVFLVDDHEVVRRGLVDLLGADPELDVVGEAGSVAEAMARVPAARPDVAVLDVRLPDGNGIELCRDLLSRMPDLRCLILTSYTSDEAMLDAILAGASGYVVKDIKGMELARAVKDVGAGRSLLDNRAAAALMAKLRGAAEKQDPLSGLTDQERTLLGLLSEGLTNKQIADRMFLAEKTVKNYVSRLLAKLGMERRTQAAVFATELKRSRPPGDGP

## CC(=O)NS(=O)(=O)c1ccc(NC(=O)CCc2ccccc2)cc1 [N-(4-[(acetylamino)sulfonyl]phenyl)-3-phenylpropanamide]
[1]
  disruption of the DevS(HKD)-DevR interaction: disrupt the DevS(HKD)-DevR interaction; also recorded: capable of disrupting the DevS(HKD)-DevR interaction
[2]
  effect on the Esat6-Cfp10 interaction: unaffected

## COc1cc(Cc2cnc(N)nc2N)cc(OC)c1OC [TRIM, trimethoprim]
Msm
  TRIM concentration to which Msm is sensitive: ~40 µg/mL

## Cl.Cn1c(=N)n(CC(=O)c2cc(C(C)(C)C)c(O)c(C(C)(C)C)c2)c2ccccc21 [1-(3,5-di-tert-butyl-4-hydroxyphenyl)-2-(2-imino-3-methyl-2,3-dihydro-1H-benzimidazol-1-yl)ethanone hydrochloride]
Msm cells
  effect on cell viability: effect cell viability at high concentrations

## CO[C@H]1C[C@@H]2CC[C@@H](C)[C@@](O)(O2)C(=O)C(=O)N2CCCC[C@H]2C(=O)O[C@H]([C@H](C)C[C@@H]2CC[C@@H](O)[C@H](OC)C2)CC(=O)[C@H](C)/C=C(\C)[C@@H](O)[C@@H](OC)C(=O)[C@H](C)C[C@H](C)/C=C/C=C/C=C/1C [rapamycin]
Mycobacterial cells
  viability of the Mycobacterial cells: not effected
